Source: patent US10172863B2, “Purine derivatives useful as HSP90 inhibitors” (Sloan-Kettering Institute for Cancer Research, priority 2009, dated 2019)

System: SKBr3 cell Hsp90
Assay: EC50 for Hsp90 binding in SKBr3 cell lysate
Conditions: read-out: EC50, binding to SKBr3 cell Hsp90

## CC(C)NCCCn1c(Sc2cc3c(cc2C2C=CCC2)OCO3)nc2c(N)ncnc21 (stereo not drawn) [Compound 4I-12, 8-(6-(cyclopent-2-enyl)benzo[d][1,3]dioxol-5-ylthio)-9-(3-(isopropylamino)propyl)-9H-purin-6-amine]
  EC50: 394 nM

## CC(C)NCCCn1c(Sc2cc3c(cc2-c2cccs2)OCO3)nc2c(N)ncnc21 [Compound 4D-1, 9-(3-(isopropylamino)propyl)-8-(6-(thiophen-2-yl)benzo[d][1,3]dioxol-5-ylthio)-9H-purin-6-amine]
  EC50: 80 nM

## CC(C)NCCCn1c(Sc2cc3c(cc2-c2ccc(C=O)o2)OCO3)nc2c(N)ncnc21 [Compound 4C-6, 5-(6-(6-amino-9-(3-(isopropylamino)propyl)-9H-purin-8-ylthio)benzo[d][1,3]dioxol-5-yl)furan-2-carbaldehyde]
  EC50: 141 nM

## COc1ccc(-c2cccs2)c(Sc2nc3c(N)ncnc3n2CCNCC(C)(C)C)c1 [Compound 7D-3, 8-(5-methoxy-2-(thiophen-2-yl)phenylthio)-9-(2-(neopentylamino)ethyl)-9H-purin-6-amine]
  EC50: 240 nM

## CC(C)NCCCn1c(Sc2cc3c(cc2CC#N)OCO3)nc2c(N)ncnc21 [Compound 4E-3, 2-(6-((6-amino-9-(3-(isopropylamino)propyl)-9H-purin-8-yl)thio)benzo[d][1,3]dioxol-5-yl)acetonitrile]
  EC50: 1130 nM

## CC(C)NCCCn1c(Sc2cc3ccccc3cc2I)nc2c(N)ncnc21 [Compound 6B-25, 8-(3-iodonaphthalen-2-ylthio)-9-(3-(isopropylamino)propyl)-9H-purin-6-amine]
  EC50: 97 nM

## CC(C)NCCCn1c(Sc2cc3c(cc2-c2nccs2)OCO3)nc2c(N)ncnc21 [Compound 4D-16, 9-(3-(isopropylamino)propyl)-8-(6-(thiazol-2-yl)benzo[d][1,3]dioxol-5-ylthio)-9H-purin-6-amine]
  EC50: 47 nM

## CC(C)NCCCn1c(Sc2cc3c(cc2-c2cc[nH]n2)OCO3)nc2c(N)ncnc21 [Compound 4G-6, 8-(6-(1H-pyrazol-3-yl)benzo[d][1,3]dioxol-5-ylthio)-9-(3-(isopropylamino)propyl)-9H-purin-6-amine]
  EC50: 5.5 nM

## CC(C)NCCCn1c(Sc2cc3c(cc2-c2ccccc2)OCO3)nc2c(N)ncnc21 [Compound 4A-1, 9-(3-(isopropylamino)propyl)-8-(6-phenylbenzo[d][1,3]dioxol-5-ylthio)-9H-purin-6-amine]
  EC50: 645 nM

## CC(C)(C)CNCCn1c(Sc2cc3c(cc2-c2cc[nH]c2)OCO3)nc2c(N)ncnc21 [Compound 4H-4, 8-(6-(1H-pyrrol-3-yl)benzo[d][1,3]dioxol-5-ylthio)-9-(2-(neopentylamino)ethyl)-9H-purin-6-amine]
  EC50: 24.6 nM

## CC(C)NCCCn1c(Sc2cc3c(cc2-c2ccc(C(C)(C)C)cc2)OCO3)nc2c(N)ncnc21 [Compound 4A-2, 8-(6-(4-tert-butylphenyl)benzo[d][1,3]dioxol-5-ylthio)-9-(3-(isopropylamino)propyl)-9H-purin-6-amine]
  EC50: 6240 nM

## CC(C)CNCCN1C(Sc2cc3c(cc2I)OCCO3)=NC2C(N)=NC=NC21 (stereo not drawn) [Compound 5A-2, 8-(7-Iodo-2,3-dihydrobenzo[b][1,4]dioxin-6-ylthio)-9-(2-(isobutylamino)ethyl)-5,9-dihydro-4H-purin-6-amine]
  EC50: 34.6 nM

## CC(C)NCCCn1c(Sc2cc3c(cc2-c2ccco2)OCO3)nc2c(N)ncnc21 [Compound 4C-1, 8-(6-(furan-2-yl)benzo[d][1,3]dioxol-5-ylthio)-9-(3-(isopropylamino)propyl)-9H-purin-6-amine]
  EC50: 22 nM

## CC(C)NCCCn1c(Sc2cc3c(cc2-c2ccoc2)OCO3)nc2c(N)ncnc21 [Compound 4C-2, 8-(6-(furan-3-yl)benzo[d][1,3]dioxol-5-ylthio)-9-(3-(isopropylamino)propyl)-9H-purin-6-amine]
  EC50: 86 nM

## CC(C)NCCCn1c(Sc2cc3c(cc2-c2ccco2)OCCO3)nc2c(N)ncnc21 [Compound 5B-1, 8-((7-(furan-2-yl)-2,3-dihydrobenzo[b][1,4]dioxin-6-yl)thio)-9-(3-(isopropylamino)propyl)-9H-purin-6-amine]
  EC50: 6.9 nM

## CC(C)NCCCn1c(Sc2cc3c(cc2-c2ccc[nH]2)OCO3)nc2c(N)ncnc21 [Compound 4H-1, 8-(6-(1H-pyrrol-2-yl)benzo[d][1,3]dioxol-5-ylthio)-9-(3-(isopropylamino)propyl)-9H-purin-6-amine]
  EC50: 740 nM

## CC(C)NCCCn1c(Sc2cc3c(cc2-c2ccc(Br)cc2)OCO3)nc2c(N)ncnc21 [Compound 4A-7, 8-(6-(4-bromophenyl)benzo[d][1,3]dioxol-5-ylthio)-9-(3-(isopropylamino)propyl)-9H-purin-6-amine]
  EC50: 1380 nM

## Nc1ncnc2c1nc(Sc1cc3c(cc1I)OCCO3)n2CCCn1ccnc1 [Compound 5A-4, 9-(3-(1H-imidazol-1-yl)propyl)-8-(7-iodo-2,3-dihydrobenzo[b][1,4]dioxin-6-ylthio)-9H-purin-6-amine]
  EC50: 62.8 nM

## Cc1ccc(-c2cc3c(cc2Sc2nc4c(N)ncnc4n2CCNCC(C)(C)C)OCO3)o1 [Compound 4C-16, 8-(6-(5-methylfuran-2-yl)benzo[d][1,3]dioxol-5-ylthio)-9-(2-(neopentylamino)ethyl)-9H-purin-6-amine]
  EC50: 10.2 nM

## CC(C)(C)CNCCn1c(Sc2cc3c(cc2-c2ccoc2)OCO3)nc2c(N)ncnc21 [Compound 4C-14, 8-(6-(furan-3-yl)benzo[d][1,3]dioxol-5-ylthio)-9-(2-(neopentylamino)ethyl)-9H-purin-6-amine]
  EC50: 10.1 nM

## CC(C)NCCCn1c(Sc2cc3c(cc2-c2cn[nH]c2)OCO3)nc2c(N)ncnc21 [Compound 4G-1, 8-(6-(1H-pyrazol-4-yl)benzo[d][1,3]dioxol-5-ylthio)-9-(3-(isopropylamino)propyl)-9H-purin-6-amine]
  EC50: 1020 nM

## CC(C)(C)CNCCN1C(Sc2cc3c(cc2I)OCCO3)=NC2C(N)=NC=NC21 (stereo not drawn) [Compound 5A-3, 8-(7-Iodo-2,3-dihydrobenzo[b][1,4]dioxin-6-ylthio)-9-(2-(neopentylamino)ethyl)-5,9-dihydro-4H-purin-6-amine]
  EC50: 34.8 nM

## CC(C)NCCCn1c(Sc2cc3c(cc2C2C=CCN2)OCO3)nc2c(N)ncnc21 (stereo not drawn) [Compound 4H-7, 8-(6-(2,5-dihydro-1H-pyrrol-2-yl)benzo[d][1,3]dioxol-5-ylthio)-9-(3-(isopropylamino)propyl)-9H-purin-6-amine]
  EC50: 26700 nM

## CC(C)NCCCn1c(Sc2cc3c(cc2-c2cc[nH]n2)OCCO3)nc2c(N)ncnc21 [Compound 5D-2, 8-((7-(1H-pyrazol-3-yl)-2,3-dihydrobenzo[b][1,4]dioxin-6-yl)thio)-9-(3-(isopropylamino)propyl)-9H-purin-6-amine]
  EC50: 11.2 nM

## CC(C)NCCCn1c(Sc2cc3c(cc2-c2ccc(C=O)cc2)OCO3)nc2c(N)ncnc21 [Compound 4A-8, 4-(6-(6-amino-9-(3-(isopropylamino)propyl)-9H-purin-8-ylthio)benzo[d][1,3]dioxol-5-yl)benzaldehyde]
  EC50: > 3000 nM

## CC(C)NCCCn1c(Sc2cc3c(cc2-c2ccncc2)OCO3)nc2c(N)ncnc21 [Compound 4F-1, 9-(3-(isopropylamino)propyl)-8-(6-(pyridin-4-yl)benzo[d][1,3]dioxol-5-ylthio)-9H-purin-6-amine]
  EC50: 9620 nM

## CC(C)(C)CNCCn1c(Sc2cc3c(cc2-c2cccs2)OCO3)nc2c(N)ncnc21 [Compound 4D-3, 9-(2-(neopentylamino)ethyl)-8-(6-(thiophen-2-yl)benzo[d][1,3]dioxol-5-ylthio)-9H-purin-6-amine]
  EC50: 18.5 nM

## CC(C)NCCCn1c(Sc2cc3c(cc2C2CC=CO2)OCO3)nc2c(N)ncnc21 (stereo not drawn) [Compound 4C-40, 8-(6-(2,3-dihydrofuran-2-yl)benzo[d][1,3]dioxol-5-ylthio)-9-(3-(isopropylamino)propyl)-9H-purin-6-amine]
  EC50: 509 nM

## CC(C)NCCCn1c(Sc2cc3c(cc2-c2cc(C(F)(F)F)cc(C(F)(F)F)c2)OCO3)nc2c(N)ncnc21 [Compound 4A-3, 8-(6-(3,5-bis(trifluoromethyl)phenyl)benzo[d][1,3]dioxol-5-ylthio)-9-(3-(isopropylamino)propyl)-9H-purin-6-amine]
  EC50: > 100000 nM

## CC(C)NCCCn1c(Sc2cc3c(cc2I)OCCO3)nc2c(N)ncnc21 [Compound 5A-1, 8-(7-Iodo-2,3-dihydrobenzo[b][1,4]dioxin-6-ylthio)-9-(3-(isopropylamino)propyl)-9H-purin-6-amine]
  EC50: 34.5 nM

## CC(C)NCCCn1c(Sc2cc3c(cc2-c2cnoc2)OCO3)nc2c(N)ncnc21 [Compound 4C-10, 9-(3-(isopropylamino)propyl)-8-(6-(isoxazol-4-yl)benzo[d][1,3]dioxol-5-ylthio)-9H-purin-6-amine]
  EC50: > 300 nM

## CC(C)NCCCn1c(Sc2cc3c(cc2-c2ncco2)OCCO3)nc2c(N)ncnc21 [Compound 5B-34, 9-(3-(isopropylamino)propyl)-8-((7-(oxazol-2-yl)-2,3-dihydrobenzo[b][1,4]dioxin-6-yl)thio)-9H-purin-6-amine]
  EC50: 3.5 nM

## NCCCCCCNCCCn1c(Sc2cc3c(cc2-c2cc(C(F)(F)F)cc(C(F)(F)F)c2)OCO3)nc2c(N)ncnc21 [Compound 4A-4, N1-(3-(6-amino-8-(6-(3,5-bis(trifluoromethyl)phenyl)benzo[d][1,3]dioxol-5-ylthio)-9H-purin-9-yl)propyl)hexane-1,6-diamine]
  EC50: 15000 nM

## Cc1ccc(-c2cc3c(cc2Sc2nc4c(N)ncnc4n2CCCNC(C)C)OCO3)o1 [Compound 4C-8, 9-(3-(isopropylamino)propyl)-8-(6-(5-methylfuran-2-yl)benzo[d][1,3]dioxol-5-ylthio)-9H-purin-6-amine]
  EC50: 37 nM

## CC(C)NCCCn1c(Sc2cc3c(cc2-c2ncco2)OCO3)nc2c(N)ncnc21 [Compound 4C-38, 9-(3-(isopropylamino)propyl)-8-(6-(oxazol-2-yl)benzo[d][1,3]dioxol-5-ylthio)-9H-purin-6-amine]
  EC50: 7.9 nM

## CC(C)(C)CNCCn1c(Sc2cc3c(cc2-c2ccco2)OCO3)nc2c(N)ncnc21 [Compound 4C-5, 8-(6-(furan-2-yl)benzo[d][1,3]dioxol-5-ylthio)-9-(2-(neopentylamino)ethyl)-9H-purin-6-amine]
  EC50: 6.5 nM
